Measured values from ChEMBL document CHEMBL1201862, “PubChem BioAssay data set” (2004).
Active and inactive are the calls of the source.

How the values were obtained:
[1] = molecular target: T1, Delta-type opioid receptor (Homo sapiens, UniProt P41143); assay: HTS Image-Based Screen for Antagonists of the DOR Receptor. [Related pubchem assays (depositor defined):AID1777, AID1785, AID1786, AID2133]; type: functional
[2] = molecular target: Mu-type opioid receptor (Homo sapiens, UniProt P35372); assay: HTS Image-Based Screen for Agonists of the MOR Receptor. [Related pubchem assays (depositor defined):AID1777, AID1785, AID1786, AID2133]; type: functional;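 also: imaging of beta-arrestin GFP recruitment into spots after receptor activation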
[3] = molecular target: T1, Delta-type opioid receptor; assay: HTS Image-Based Screen for Agonists of the DOR Receptor. [Related pubchem assays (depositor defined):AID1777, AID1786, AID2133]; type: functional
[4] = molecular target: T2, Kappa-type opioid receptor (Homo sapiens, UniProt P41145); type: functional
T2 sequence (P41145 whole entry): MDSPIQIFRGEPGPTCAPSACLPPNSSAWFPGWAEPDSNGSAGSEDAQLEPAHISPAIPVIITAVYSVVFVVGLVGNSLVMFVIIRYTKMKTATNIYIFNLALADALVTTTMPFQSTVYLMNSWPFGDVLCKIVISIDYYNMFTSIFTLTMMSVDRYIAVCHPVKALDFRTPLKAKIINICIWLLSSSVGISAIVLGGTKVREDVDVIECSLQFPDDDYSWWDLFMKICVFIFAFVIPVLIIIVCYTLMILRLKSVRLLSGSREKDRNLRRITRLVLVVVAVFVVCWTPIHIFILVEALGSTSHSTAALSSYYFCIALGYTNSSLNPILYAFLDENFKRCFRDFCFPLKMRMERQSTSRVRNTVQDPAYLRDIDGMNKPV

[5] = molecular target: Beta-galactosidase (Escherichia coli, UniProt Q8VNN2); type: functional
Beta-galactosidase, sequence (Q8VNN2 whole entry): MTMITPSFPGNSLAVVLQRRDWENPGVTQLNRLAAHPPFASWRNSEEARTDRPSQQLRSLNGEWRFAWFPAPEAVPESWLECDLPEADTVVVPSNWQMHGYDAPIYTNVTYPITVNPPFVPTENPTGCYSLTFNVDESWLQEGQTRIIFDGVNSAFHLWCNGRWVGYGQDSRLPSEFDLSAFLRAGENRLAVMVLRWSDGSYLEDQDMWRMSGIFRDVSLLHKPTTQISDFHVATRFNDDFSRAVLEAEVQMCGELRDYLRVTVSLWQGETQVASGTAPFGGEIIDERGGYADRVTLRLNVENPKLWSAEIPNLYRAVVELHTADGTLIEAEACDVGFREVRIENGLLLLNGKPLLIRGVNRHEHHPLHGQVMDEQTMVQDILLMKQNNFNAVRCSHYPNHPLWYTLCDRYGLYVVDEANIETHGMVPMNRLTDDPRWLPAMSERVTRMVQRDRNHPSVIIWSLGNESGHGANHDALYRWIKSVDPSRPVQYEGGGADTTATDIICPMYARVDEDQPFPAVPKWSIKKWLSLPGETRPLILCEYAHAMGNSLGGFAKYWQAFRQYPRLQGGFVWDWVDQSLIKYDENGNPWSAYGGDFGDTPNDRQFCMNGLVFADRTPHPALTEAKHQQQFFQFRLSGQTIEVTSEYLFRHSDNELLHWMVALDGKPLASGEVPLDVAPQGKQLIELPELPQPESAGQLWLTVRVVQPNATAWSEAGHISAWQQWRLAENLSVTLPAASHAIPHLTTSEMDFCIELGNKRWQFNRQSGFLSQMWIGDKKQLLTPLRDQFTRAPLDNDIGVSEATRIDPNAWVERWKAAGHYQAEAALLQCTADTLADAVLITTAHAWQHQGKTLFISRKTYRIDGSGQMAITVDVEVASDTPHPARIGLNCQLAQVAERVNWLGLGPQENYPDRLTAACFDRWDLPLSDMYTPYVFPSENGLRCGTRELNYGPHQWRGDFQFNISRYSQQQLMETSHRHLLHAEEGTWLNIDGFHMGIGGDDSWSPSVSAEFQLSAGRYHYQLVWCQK

[6] = molecular target: T2, Kappa-type opioid receptor; type: functional; remark: listed apart in the source
[7] = molecular target: T3, Latent membrane protein 1 (Human herpesvirus 4 (strain B95-8), UniProt P03230); assay: TES1-eGFP NF-kB reporter inhibition versus Tet-On dsRED, dose response, selectivity assay for LMP1 NF-kB inhibitor project, imaging, HEK293T, dual-color eGFP/dsRED, cherry-picks (AID 588398); type: functional, cell-based
T3 sequence (P03230 whole entry): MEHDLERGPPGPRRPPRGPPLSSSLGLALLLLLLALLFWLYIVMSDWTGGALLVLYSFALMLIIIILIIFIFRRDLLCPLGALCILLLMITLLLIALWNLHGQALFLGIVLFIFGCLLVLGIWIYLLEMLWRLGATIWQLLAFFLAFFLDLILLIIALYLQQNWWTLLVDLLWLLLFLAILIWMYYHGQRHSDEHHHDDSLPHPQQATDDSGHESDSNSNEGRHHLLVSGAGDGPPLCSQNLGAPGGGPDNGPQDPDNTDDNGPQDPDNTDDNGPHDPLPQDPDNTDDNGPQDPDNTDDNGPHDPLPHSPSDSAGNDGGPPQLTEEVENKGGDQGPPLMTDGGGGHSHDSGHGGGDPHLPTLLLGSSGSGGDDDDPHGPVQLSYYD

[8] = molecular target: Intestinal-type alkaline phosphatase (Mus musculus, UniProt P24822); assay: PubChem AID 488874; type: functional
[9] = molecular target: T4, Intestinal-type alkaline phosphatase (Homo sapiens, UniProt P09923); assay: human intestinal alkaline phosphatase activators, dose response, biochemical, luminescence, uHTS hits (AID 463120); type: functional
T4 sequence (P09923 whole entry): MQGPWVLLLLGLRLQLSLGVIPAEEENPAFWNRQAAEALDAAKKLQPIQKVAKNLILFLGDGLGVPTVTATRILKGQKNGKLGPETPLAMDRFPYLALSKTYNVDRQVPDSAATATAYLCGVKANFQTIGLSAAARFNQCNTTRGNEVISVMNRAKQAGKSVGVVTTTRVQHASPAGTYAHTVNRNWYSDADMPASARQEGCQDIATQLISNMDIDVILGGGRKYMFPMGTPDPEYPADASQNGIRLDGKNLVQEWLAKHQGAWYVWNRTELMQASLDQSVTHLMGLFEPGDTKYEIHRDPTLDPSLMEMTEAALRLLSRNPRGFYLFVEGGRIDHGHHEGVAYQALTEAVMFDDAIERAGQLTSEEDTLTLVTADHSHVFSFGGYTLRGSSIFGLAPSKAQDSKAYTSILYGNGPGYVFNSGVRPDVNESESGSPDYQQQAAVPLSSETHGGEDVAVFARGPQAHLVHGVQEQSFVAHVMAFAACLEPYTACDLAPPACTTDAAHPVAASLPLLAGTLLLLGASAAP

[10] = molecular target: T4, Intestinal-type alkaline phosphatase; assay: human IAP activators, dose response, biochemical, luminescent, uHTS hits, set 2 (AID 488817); type: functional;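 also: potency of activators that raise enzyme activity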
[11] = molecular target: T5, Alkaline phosphatase, tissue-nonspecific isozyme (Homo sapiens, UniProt P05186); assay: TNAP enzyme activators, dose response, selectivity assay for human IAP activator project, biochemical, TNAP isozyme, human IAP uHTS hits (AID 488886); type: functional;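 also: potency of compounds raising TNAP activity as a selectivity check on IAP activators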
T5 sequence (P05186 whole entry): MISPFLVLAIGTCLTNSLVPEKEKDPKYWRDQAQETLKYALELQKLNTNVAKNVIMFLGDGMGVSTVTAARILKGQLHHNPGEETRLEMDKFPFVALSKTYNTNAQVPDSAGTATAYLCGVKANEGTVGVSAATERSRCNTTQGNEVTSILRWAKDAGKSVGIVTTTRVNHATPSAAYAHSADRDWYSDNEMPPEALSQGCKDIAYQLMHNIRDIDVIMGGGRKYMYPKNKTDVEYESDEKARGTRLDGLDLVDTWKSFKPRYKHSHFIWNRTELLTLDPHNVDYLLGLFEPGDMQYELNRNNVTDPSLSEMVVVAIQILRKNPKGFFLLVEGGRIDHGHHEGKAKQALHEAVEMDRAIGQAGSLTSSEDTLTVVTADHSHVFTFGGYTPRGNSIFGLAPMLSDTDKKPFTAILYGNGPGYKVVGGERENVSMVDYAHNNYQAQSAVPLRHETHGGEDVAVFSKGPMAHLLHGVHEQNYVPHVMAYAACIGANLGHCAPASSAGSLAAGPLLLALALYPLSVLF

[12] = molecular target: T6, Caspase-6 (Homo sapiens, UniProt P55212); assay: human caspase-6 inhibitors, dose response, biochemical, VEID-R110 fluorescence, cherry-pick (AID 720632)
T6 sequence (P55212 whole entry): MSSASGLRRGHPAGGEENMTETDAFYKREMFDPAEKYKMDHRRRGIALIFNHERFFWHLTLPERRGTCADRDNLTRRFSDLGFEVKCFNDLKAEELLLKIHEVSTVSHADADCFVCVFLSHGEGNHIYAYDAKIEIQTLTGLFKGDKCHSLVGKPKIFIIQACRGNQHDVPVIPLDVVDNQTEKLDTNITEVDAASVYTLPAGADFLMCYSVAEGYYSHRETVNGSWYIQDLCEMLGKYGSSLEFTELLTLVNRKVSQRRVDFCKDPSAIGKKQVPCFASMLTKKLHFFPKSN

[13] = inhibitors of firefly luciferase expression or activity, dose response, H4 neuroglioma cells, luminescence (AID 1990); type: functional, cell-based
[14] = Luminescence Cell-Based Dose Response HTS to Identify Inhibitors of 5'UTR Stem-Loop Driven Prion Protein mRNA Translation in H4 Neuroglioblastoma Cells. [Related pubchem assays: 1827 (Project Summary), 1813 (Primary HTS)]; type: functional
[15] = inhibitors of SNCA 5'UTR-driven reporter translation, confirmation, H4 neuroglioma cells, luminescence (AID 1988); type: functional, cell-based
[16] = molecular target: T7, Microphthalmia-associated transcription factor (Homo sapiens, UniProt O75030); assay: TRPM1 promoter luciferase signal decrease, dose response, MITF inhibitor project, cell-based, SK-MEL-5, cherry-picked, set 3 (AID 493073); type: functional
T7 sequence (O75030 whole entry): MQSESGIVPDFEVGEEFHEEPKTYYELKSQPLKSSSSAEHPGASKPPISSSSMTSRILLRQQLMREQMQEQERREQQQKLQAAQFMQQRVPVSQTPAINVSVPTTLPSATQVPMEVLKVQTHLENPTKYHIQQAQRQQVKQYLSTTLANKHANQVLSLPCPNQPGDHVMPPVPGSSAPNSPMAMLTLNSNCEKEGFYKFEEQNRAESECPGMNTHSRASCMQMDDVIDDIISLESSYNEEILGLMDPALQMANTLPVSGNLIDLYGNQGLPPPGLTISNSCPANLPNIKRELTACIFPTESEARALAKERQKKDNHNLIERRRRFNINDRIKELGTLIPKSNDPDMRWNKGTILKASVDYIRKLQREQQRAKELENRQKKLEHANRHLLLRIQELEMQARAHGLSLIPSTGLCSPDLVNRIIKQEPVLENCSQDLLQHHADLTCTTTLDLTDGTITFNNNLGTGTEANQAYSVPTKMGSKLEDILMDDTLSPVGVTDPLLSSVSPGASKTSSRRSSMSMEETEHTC

[17] = tested on: A-375; assay: MITF: Counter assay: A375 proliferation Measured in Cell-Based System Using Plate Reader - 2084-03_Inhibitor_Dose_DryPowder_Activity. [Related pubchem assays (depositor defined):AID488944]; type: functional; details: Homo sapiens
[18] = tested on: A-375; assay: A375 melanoma cell viability reduction, dose response, counter-screen for MITF modulator project, cherry-pick samples, set 2 (AID 540335); type: functional, cell-based; details: Homo sapiens
[19] = molecular target: Tyrosine-protein phosphatase non-receptor type 12 (Homo sapiens, UniProt Q05209); assay: SAR Selectivity Analysis of small molecule inhibitors of PEST using pCAP in a fluorescence assay. [Related pubchem assays (depositor defined):AID1779, AID1784, AID2135]; type: functional
Tyrosine-protein phosphatase non-receptor type 12, sequence (Q05209 whole entry): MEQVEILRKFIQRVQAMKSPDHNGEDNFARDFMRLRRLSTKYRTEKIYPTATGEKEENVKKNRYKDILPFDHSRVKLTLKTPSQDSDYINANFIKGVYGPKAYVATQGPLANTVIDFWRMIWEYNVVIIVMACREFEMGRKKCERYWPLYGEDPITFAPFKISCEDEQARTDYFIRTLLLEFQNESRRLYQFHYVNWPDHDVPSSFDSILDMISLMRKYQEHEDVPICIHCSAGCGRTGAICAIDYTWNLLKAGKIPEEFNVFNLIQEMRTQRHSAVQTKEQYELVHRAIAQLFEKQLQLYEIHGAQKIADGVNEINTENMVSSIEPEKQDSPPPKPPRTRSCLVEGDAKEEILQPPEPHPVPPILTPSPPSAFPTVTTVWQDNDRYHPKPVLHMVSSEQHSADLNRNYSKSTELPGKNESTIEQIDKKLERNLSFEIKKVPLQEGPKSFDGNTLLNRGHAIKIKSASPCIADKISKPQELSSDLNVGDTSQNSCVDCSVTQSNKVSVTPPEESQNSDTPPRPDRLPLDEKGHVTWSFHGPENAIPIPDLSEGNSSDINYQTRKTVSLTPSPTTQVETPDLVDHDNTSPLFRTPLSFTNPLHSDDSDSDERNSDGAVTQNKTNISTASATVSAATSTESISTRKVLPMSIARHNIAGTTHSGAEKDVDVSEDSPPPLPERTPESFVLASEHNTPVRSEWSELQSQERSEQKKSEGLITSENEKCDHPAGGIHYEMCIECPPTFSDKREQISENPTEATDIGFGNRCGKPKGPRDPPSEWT

[20] = molecular target: T8, Tyrosine-protein phosphatase non-receptor type 22 (Homo sapiens, UniProt Q9Y2R2); assay: SAR LYP1 Fluorescent Assay using OMFP substrate for In Vitro dose response studies - Set 3. [Related pubchem assays (depositor defined):AID1779, AID1784, AID2140, AID2686]; type: functional
T8 sequence (Q9Y2R2 whole entry): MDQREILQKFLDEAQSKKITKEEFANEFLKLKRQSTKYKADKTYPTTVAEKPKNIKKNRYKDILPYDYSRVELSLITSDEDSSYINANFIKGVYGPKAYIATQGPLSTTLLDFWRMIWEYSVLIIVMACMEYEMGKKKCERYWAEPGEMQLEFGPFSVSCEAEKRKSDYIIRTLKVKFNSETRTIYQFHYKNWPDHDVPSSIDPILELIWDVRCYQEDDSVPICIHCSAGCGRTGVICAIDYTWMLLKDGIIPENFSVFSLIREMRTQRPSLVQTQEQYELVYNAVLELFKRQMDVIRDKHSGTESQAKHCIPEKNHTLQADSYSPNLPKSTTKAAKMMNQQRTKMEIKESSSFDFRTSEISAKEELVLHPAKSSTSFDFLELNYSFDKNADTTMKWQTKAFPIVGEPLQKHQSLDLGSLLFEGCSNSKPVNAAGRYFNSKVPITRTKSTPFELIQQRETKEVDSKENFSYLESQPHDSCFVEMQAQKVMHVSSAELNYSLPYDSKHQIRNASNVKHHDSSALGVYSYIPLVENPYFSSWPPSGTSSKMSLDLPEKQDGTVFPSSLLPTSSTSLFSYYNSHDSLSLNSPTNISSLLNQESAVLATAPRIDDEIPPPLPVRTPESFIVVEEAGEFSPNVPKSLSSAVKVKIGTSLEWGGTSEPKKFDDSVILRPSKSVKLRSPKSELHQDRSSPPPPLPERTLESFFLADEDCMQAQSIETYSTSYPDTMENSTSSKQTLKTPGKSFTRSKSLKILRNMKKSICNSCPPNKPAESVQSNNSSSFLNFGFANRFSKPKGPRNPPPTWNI

[21] = molecular target: T9, Tyrosine-protein phosphatase non-receptor type 7 (Homo sapiens, UniProt P35236); assay: redox-dependent HePTP inhibition, mechanism study, biochemical, fluorescence (AID 2068); type: functional
T9 sequence (P35236 whole entry): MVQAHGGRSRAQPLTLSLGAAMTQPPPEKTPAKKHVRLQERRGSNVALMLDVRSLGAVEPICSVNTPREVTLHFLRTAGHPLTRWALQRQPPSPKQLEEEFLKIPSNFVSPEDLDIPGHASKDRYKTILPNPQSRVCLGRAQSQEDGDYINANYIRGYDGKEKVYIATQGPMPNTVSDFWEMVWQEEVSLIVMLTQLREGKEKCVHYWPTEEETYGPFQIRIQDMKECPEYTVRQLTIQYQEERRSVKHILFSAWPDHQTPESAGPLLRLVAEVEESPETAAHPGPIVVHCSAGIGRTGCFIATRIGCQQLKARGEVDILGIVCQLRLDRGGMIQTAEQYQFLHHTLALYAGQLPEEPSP

[22] = molecular target: T9, Tyrosine-protein phosphatase non-receptor type 7; assay: HePTP (PTPN7) phosphatase inhibitor potency, SAR follow-up, biochemical, set 2 (AID 449736); type: functional
[23] = molecular target: T8, Tyrosine-protein phosphatase non-receptor type 22; assay: LYP (PTPN22) phosphatase inhibitor potency, SAR follow-up, biochemical, pCAP fluorogenic substrate, fluorescence, set 3 (AID 449727); type: functional
[24] = molecular target: Dual specificity protein phosphatase 3 (Homo sapiens, UniProt P51452); assay: SAR VHR1 Fluorescent Assay for In Vitro dose response studies Set 2. [Related pubchem assays (depositor defined):AID1654, AID1661, AID1878]; type: functional
Dual specificity protein phosphatase 3, sequence (P51452 whole entry): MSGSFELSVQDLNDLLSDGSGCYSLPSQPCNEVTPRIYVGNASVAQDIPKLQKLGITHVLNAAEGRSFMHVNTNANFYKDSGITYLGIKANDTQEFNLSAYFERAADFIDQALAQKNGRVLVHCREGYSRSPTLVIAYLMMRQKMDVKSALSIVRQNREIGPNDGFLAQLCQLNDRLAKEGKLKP

[25] = molecular target: Dual specificity protein phosphatase 6 (Rattus norvegicus, UniProt Q64346); type: functional;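 also: confirmatory in vitro dose-response testing of MKP-3 inhibition; recombinant His-tagged MKP-3 made in E. coli BL21 with OMFP substrate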
Dual specificity protein phosphatase 6, sequence (Q64346 whole entry): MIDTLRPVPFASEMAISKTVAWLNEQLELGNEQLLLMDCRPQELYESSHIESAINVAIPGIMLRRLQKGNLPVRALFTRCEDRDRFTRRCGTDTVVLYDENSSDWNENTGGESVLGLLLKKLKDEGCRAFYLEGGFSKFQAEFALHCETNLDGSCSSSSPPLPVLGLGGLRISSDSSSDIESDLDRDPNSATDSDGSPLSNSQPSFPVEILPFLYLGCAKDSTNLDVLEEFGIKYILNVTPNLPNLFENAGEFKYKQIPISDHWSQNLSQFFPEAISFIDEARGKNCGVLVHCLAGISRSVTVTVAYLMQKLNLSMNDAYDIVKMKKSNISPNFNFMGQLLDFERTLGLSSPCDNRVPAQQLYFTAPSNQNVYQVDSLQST

T1 sequence (P41143 whole entry): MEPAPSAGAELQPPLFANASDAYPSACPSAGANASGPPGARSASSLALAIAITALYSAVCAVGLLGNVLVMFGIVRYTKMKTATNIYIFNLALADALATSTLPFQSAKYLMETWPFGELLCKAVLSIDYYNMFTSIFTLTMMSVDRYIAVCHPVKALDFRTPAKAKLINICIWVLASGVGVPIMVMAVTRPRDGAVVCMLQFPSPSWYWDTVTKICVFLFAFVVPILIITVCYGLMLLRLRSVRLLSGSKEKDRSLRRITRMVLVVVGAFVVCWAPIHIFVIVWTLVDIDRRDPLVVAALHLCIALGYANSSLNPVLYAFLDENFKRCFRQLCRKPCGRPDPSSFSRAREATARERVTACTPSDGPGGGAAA

O=c1[nH]c(Nc2nc3ccccc3o2)nc2c1CCCC2
IC50 [1]: > 32 µM (inactive) | EC50 [2]: > 32 µM (inactive) | EC50 [3]: > 32 µM (inactive) | IC50 [4]: 5.27 µM (active) | EC50 [5]: > 31.5 µM (inactive) | IC50 [6]: > 32 µM | AC50 [7]: 16.8 µM (active)

Cc1cccc(OCC(=O)NNC(=O)c2ccc3[nH]cnc3c2)c1
IC50 [8]: > 100 µM (inactive) | EC50 [9]: 9.75 µM (active) | EC50 [10]: 13.5 µM (active) | EC50 [11]: 17.7 µM (active) | AC50 [12]: 44 µM (active)

O=C(O)c1ccccc1C(=O)Nc1ccc(Oc2cccc3ccccc23)cc1
EC50 [13]: 6.38 µM (active) | EC50 [14]: 12.7 µM (active) | EC50 [15]: 10.4 µM (active) | AC50 [16]: 18.8 µM (active) | AC50 [17]: > 35 µM (active) | AC50 [18]: > 35 µM (active)

CCOC(=O)COc1c(Cl)cc(/C=C2/S/C(=N/c3ccc(F)cc3)NC2=O)cc1OCC
IC50 [19]: 9.35 µM (active) | IC50 [20]: 74.8 µM (active) | IC50 [21]: 10.5 µM (active) | IC50 [22]: 1.4 µM (active) | IC50 [23]: 54.2 µM (active) | IC50 [24]: > 100 µM (inactive) | IC50 [25]: 66.4 µM (active)
